The values that follow come from patent US8183230B2, “Antimicrobial preservatives to achieve multi-dose formulation using beta-cyclodextrins for liquid dosage forms” (priority 2004, dated 2012).

“Also recorded” adds a separate entry of the source.

The test system of data set [1] is Escherichia coli, Pseudomonas aeruginosa, Staphylococcus aureus, Candida albicans, Aspergillus niger. In words: Hybrid USP/Ph. Eur. antimicrobial effectiveness test (AET). It counts as cell-based. On the procedure:
Preparation of Preserved Formulations. […] Antimicrobial preservatives with optimal activity at a pH outside the nominal formulation value (pH 4.4) were titrated to either 3.5 or 5.0 using 1 N HCl or 1 N NaOH. A stock solution of either 10% or 5% (weight/volume) SBE-CD containing 10 mgA/mL of the compound of Formula Ia citrate was prepared. Preservative was added to the respective formulation on a weight basis.
Antimicrobial Efficacy Testing. A hybrid USP […]/Ph. Eur. 2000 antimicrobial effectiveness test (AET) was performed, as follows: 20 mL of drug product was individually inoculated with 0.1-0.2 mL of bacterial or fungal culture, per USP/Ph. Eur. compendial requirements. The final concentration of organisms in the test sample was between 1×10^5 and 1×10^6 cfu/mL. At initial 6 hr, 24 hr, 7 day, 14 day, and 28 day time intervals, 1 mL of the inoculated product was transferred into 9 mL of a recovery diluent, that was validated to confirm neutralization of the antimicrobial preservative. One mL of the diluted sample was then transferred to a sterile petri dish and combined with 15-20 mL of an agar broth to culture the organisms. Plates were then incubated for 3 to 5 days, upon which colonies were counted. Initial organism contamination was then calculated based on dilution of the initial sample.
Generally, the USP test requirements are less stringent than Ph. Eur. requirements, which typically have an immediate bacteriocidal activity requirement. The Ph. Eur. requirements shown in Table III have either a “Criteria A” or “Criteria B” specification depending on the rate of microorganism reduction, with criteria A requiring an increased bacteriocidal rate. In order to meet the combined hybrid assay, the initial inoculum count of microorganisms needed to be reduced by the amounts listed in Table V.

For data set [2] the following is noted: Study A; pH: 4.4, SBE-CD: 10%; compound of Formula Ia at 10 mgA/mL; content: ethanol 15%, meta-cresol 0.3%, propylene glycol 50%, thimerosal 0.01. On the procedure: Injection site toleration was measured by inspecting the patient for signs of reaction, including erythema (size); skin thickening (size), pain on palpation and edema. Table VI provides a detailed explanation of the scoring system: a score of 0 (no reaction) to 4 (severe reaction) was given for each characteristic and each injection site daily.
Compound of Formula Ia formulations were evaluated for injection site toleration (hereinafter “IST”).
Formulations were tested in groups of 4 dogs comprised of beagles and mongrels. […] Dogs were observed daily for evidence of reaction at the injection site and a score of 0-4 (see Table VI) was given for each of the following parameters: pain on injection, erythema, tissue thickening, pain on palpation and edema. Dogs were observed daily until day 5 (24 hours after the last dose).

Data set [3] has as its system Escherichia coli, Pseudomonas aeruginosa, Staphylococcus aureus, Candida albicans, Aspergillus niger. Conditions: as indicated by literature; cited from earlier work.

As to `Cc1cccc(O)c1` [meta-cresol], the reducing the microorganisms result in data set [1] is recorded as “effective”. The “AET Results Ph. Eur. Criteria A” value in data set [1] (Study A, pH: 4.4, SBE-CD: 10%, compound of Formula Ia at 10 mgA/mL, content: ethanol 15%, meta-cresol 0.3%, propylene glycol 50%, thimerosal 0.01, cells without ✓ print organism (time point)) is on record as “s. aur (6, 24 hr); also recorded: c. alb (7 d)”. Further, the “Ph. Eur. criteria B” value in data set [1] (leads of Study B) is “met criteria B”. Further, the “Ph. Eur. criteria A for preservative efficacy” value in data set [1] (meta-cresol containing formulations) was “robustly meeting Ph. Eur. criteria A”. Further, the activity against bacteria result in data set [1] (when SBE-CD was present in the formulation) is “greatly diminished”. Also, the IST result in data set [2] was “Good”. In data set [3], the “USP and Ph. Eur. criteria A or B requirements” value is “met both the USP and either Ph. Eur. criteria A or B requirements”.
